# From ChEMBL document CHEMBL1201862, “PubChem BioAssay data set” (2004)
#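 Five compound concentrations were applied to cells in 96-well plates for 48 hours; endpoints were derived by simple linear interpolation of the resulting dose-response curve. The concentration for 50% growth inhibition is given as GI50.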 Activity calls are given as the source filed them. Rule as the data show it: active = GI50 up to about 1.1 µM and inactive = higher.
# Legend:
# Assay in all cases: inhibition of tumour cell growth, NCI panel, 48 h
# DLD-1 = test system: DLD-1
# BT-549 = test system: BT-549
# NCI-H23 = test system: NCI-H23
# HOP-92 = test system: HOP-92
# TK-10 = test system: TK-10
# KM12 = test system: KM12
# M19-MEL = test system: M19-MEL
# MOLT-4 = test system: MOLT-4
# K562 = test system: K562
# A549 = test system: A549
# NCI-H460 = test system: NCI-H460
# HCT-116 = test system: HCT-116
# EKVX = test system: EKVX
# ACHN = test system: ACHN
# SNB-75 = test system: SNB-75
# IGROV-1 = test system: IGROV-1
# Malme-3M = test system: Malme-3M
# SK-OV-3 = test system: SK-OV-3
# SN12C = test system: SN12C
# DU-145 = test system: DU-145
# SF-268 = test system: SF-268
# OVCAR-5 = test system: OVCAR-5
# U-251 = test system: U-251
# RXF 393 = test system: RXF 393
# MDA-MB-435 = test system: MDA-MB-435
# HCC 2998 = test system: HCC 2998
# LOX IMVI = test system: LOX IMVI
# SF-539 = test system: SF-539
# HT-29 = test system: HT-29
# COLO 205 = test system: COLO 205
# SR = test system: SR
# NCI/ADR-RES = test system: NCI/ADR-RES
# DMS-114 = test system: DMS-114
# OVCAR-8 = test system: OVCAR-8
# T47D = test system: T47D
# UACC-257 = test system: UACC-257
# MDA-N = test system: MDA-N
# HOP-62 = test system: HOP-62
# CAKI-1 = test system: CAKI-1
# RPMI-8226 = test system: RPMI-8226
# HCT-15 = test system: HCT-15
# SK-MEL-2 = test system: SK-MEL-2
# OVCAR-3 = test system: OVCAR-3
# OVCAR-4 = test system: OVCAR-4
# SNB-19 = test system: SNB-19
# RXF 631 = test system: RXF 631
# UACC-62 = test system: UACC-62
# SK-MEL-28 = test system: SK-MEL-28
# KM-20L2 = test system: KM-20L2
# MCF7 = test system: MCF7
# MDA-MB-231 = test system: MDA-MB-231
# A498 = test system: A498
# XF498 = test system: XF498
# LXFL 529 = test system: LXFL 529
# UO-31 = test system: UO-31
# Hs-578T = test system: Hs-578T
# NCI-H522 = test system: NCI-H522
# HL-60 = test system: HL-60
# CCRF-CEM = test system: CCRF-CEM
# DMS-273 = test system: DMS-273
# SW-620 = test system: SW-620
# SK-MEL-5 = test system: SK-MEL-5
# PC-3 = test system: PC-3
# SF-295 = test system: SF-295
# NCI-H226 = test system: NCI-H226
# M14 = test system: M14
# SNB-78 = test system: SNB-78
# 786-0 = test system: 786-0
smiles,measurement,setting,value
C=C(c1nc2ccc(Cl)cc2[nH]c1=O)C(O)c1ccc(C(O)C(=O)c2nc3ccc(Cl)cc3[nH]c2=O)cc1 (stereo not given),GI50,DLD-1,> 100 µM (inactive)
same,GI50,BT-549,> 100 µM (inactive)
same,GI50,NCI-H23,> 100 µM (inactive)
same,GI50,HOP-92,> 100 µM (inactive)
same,GI50,TK-10,> 100 µM (inactive)
same,GI50,KM12,60.1 µM (inactive)
same,GI50,M19-MEL,> 100 µM (inactive)
same,GI50,MOLT-4,33.2 µM (inactive)
same,GI50,K562,49 µM (inactive)
same,GI50,A549,> 100 µM (inactive)
same,GI50,NCI-H460,> 100 µM (inactive)
same,GI50,HCT-116,> 100 µM (inactive)
same,GI50,EKVX,> 100 µM (inactive)
same,GI50,ACHN,61.7 µM (inactive)
same,GI50,SNB-75,> 100 µM (inactive)
same,GI50,IGROV-1,> 68.2 µM (inactive)
same,GI50,Malme-3M,> 100 µM (inactive)
same,GI50,SK-OV-3,> 100 µM (inactive)
same,GI50,SN12C,> 100 µM (inactive)
same,GI50,DU-145,> 100 µM (inactive)
same,GI50,SF-268,> 100 µM (inactive)
same,GI50,OVCAR-5,> 100 µM (inactive)
same,GI50,U-251,> 100 µM (inactive)
same,GI50,RXF 393,> 100 µM (inactive)
same,GI50,MDA-MB-435,> 100 µM (inactive)
same,GI50,HCC 2998,> 100 µM (inactive)
same,GI50,LOX IMVI,> 83.6 µM (inactive)
same,GI50,SF-539,> 100 µM (inactive)
same,GI50,HT-29,> 100 µM (inactive)
same,GI50,COLO 205,> 100 µM (inactive)
same,GI50,SR,83.6 µM (inactive)
same,GI50,NCI/ADR-RES,> 100 µM (inactive)
same,GI50,DMS-114,35.4 µM (inactive)
same,GI50,OVCAR-8,> 100 µM (inactive)
same,GI50,T47D,> 100 µM (inactive)
same,GI50,UACC-257,> 100 µM (inactive)
same,GI50,MDA-N,> 100 µM (inactive)
same,GI50,HOP-62,> 100 µM (inactive)
same,GI50,CAKI-1,> 100 µM (inactive)
same,GI50,RPMI-8226,9.06 µM (inactive)
same,GI50,HCT-15,74.5 µM
same,GI50,SK-MEL-2,> 100 µM (inactive)
same,GI50,OVCAR-3,> 100 µM (inactive)
same,GI50,OVCAR-4,> 100 µM (inactive)
same,GI50,SNB-19,> 100 µM (inactive)
same,GI50,RXF 631,> 100 µM (inactive)
same,GI50,UACC-62,> 79.6 µM (inactive)
same,GI50,SK-MEL-28,> 100 µM (inactive)
same,GI50,KM-20L2,62.4 µM (inactive)
same,GI50,MCF7,> 100 µM (inactive)
same,GI50,MDA-MB-231,> 100 µM (inactive)
same,GI50,A498,> 100 µM (inactive)
same,GI50,XF498,> 100 µM (inactive)
same,GI50,LXFL 529,81.1 µM (inactive)
same,GI50,UO-31,> 91 µM (inactive)
same,GI50,Hs-578T,> 100 µM (inactive)
same,GI50,NCI-H522,47.1 µM (inactive)
same,GI50,HL-60,5.04 µM (inactive)
same,GI50,CCRF-CEM,4.28 µM (inactive)
same,GI50,DMS-273,> 100 µM (inactive)
same,GI50,SW-620,> 100 µM (inactive)
same,GI50,SK-MEL-5,> 95.1 µM (inactive)
same,GI50,PC-3,87.9 µM (inactive)
same,GI50,SF-295,> 100 µM (inactive)
same,GI50,NCI-H226,> 100 µM (inactive)
same,GI50,M14,> 100 µM (inactive)
same,GI50,SNB-78,> 100 µM (inactive)
same,GI50,786-0,> 100 µM (inactive)
Nc1ccc(C(=O)N/C(=C\c2ccc3c(c2)OCO3)c2nc3ccccc3s2)cc1,GI50,DLD-1,13 µM (inactive)
same,GI50,NCI-H23,> 10 µM (inactive)
same,GI50,HOP-92,12.3 µM (inactive)
same,GI50,TK-10,19.8 µM (inactive)
same,GI50,KM12,14.8 µM (inactive)
same,GI50,M19-MEL,14.9 µM (inactive)
same,GI50,MOLT-4,2.79 µM (inactive)
same,GI50,K562,5.38 µM (inactive)
same,GI50,A549,15.5 µM (inactive)
same,GI50,EKVX,12.9 µM (inactive)
same,GI50,ACHN,14.2 µM (inactive)
same,GI50,IGROV-1,14.6 µM (inactive)
same,GI50,Malme-3M,> 10 µM (inactive)
same,GI50,SK-OV-3,21.3 µM (inactive)
same,GI50,SN12C,13 µM (inactive)
same,GI50,SF-268,11.9 µM (inactive)
same,GI50,OVCAR-5,22 µM (inactive)
same,GI50,U-251,13.1 µM (inactive)
same,GI50,RXF 393,14.8 µM (inactive)
same,GI50,HCC 2998,14.8 µM (inactive)
same,GI50,SF-539,17.6 µM (inactive)
same,GI50,HT-29,12.6 µM (inactive)
same,GI50,COLO 205,18.4 µM (inactive)
same,GI50,SR,6.01 µM (inactive)
same,GI50,OVCAR-8,14.2 µM (inactive)
same,GI50,CAKI-1,15.9 µM (inactive)
same,GI50,HCT-15,11.3 µM
same,GI50,SK-MEL-2,14.8 µM (inactive)
same,GI50,OVCAR-3,16.9 µM (inactive)
same,GI50,OVCAR-4,12.2 µM (inactive)
same,GI50,SNB-19,15.2 µM (inactive)
same,GI50,RXF 631,5.79 µM (inactive)
same,GI50,UACC-62,14.4 µM (inactive)
same,GI50,SK-MEL-28,13.2 µM (inactive)
same,GI50,KM-20L2,14.8 µM (inactive)
same,GI50,XF498,12.9 µM (inactive)
same,GI50,LXFL 529,10.6 µM (inactive)
same,GI50,UO-31,15.6 µM (inactive)
same,GI50,NCI-H522,13.8 µM (inactive)
same,GI50,CCRF-CEM,1.89 µM (inactive)
same,GI50,DMS-273,16.8 µM (inactive)
same,GI50,SW-620,11.5 µM (inactive)
same,GI50,SK-MEL-5,13.7 µM (inactive)
same,GI50,SF-295,16.7 µM (inactive)
same,GI50,M14,11 µM (inactive)
same,GI50,SNB-78,16.7 µM (inactive)
same,GI50,786-0,11.6 µM (inactive)
